Biological target: T1, RET (Homo sapiens, UniProt P07949)
T1 construct: purchased Thermo Fisher Scientific (Life Technologies) SelectScreen
Assay: SelectScreen Z'LYTE
Assay type: biochemical
Procedure, shortened: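 SelectScreen broad panel; activity (Z'LYTE, Adapta) plus binding formats. ATP: Km app for CSF1R Z'LYTE; 10 for CAMK1 Adapta. Readout = % per kinase.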

T1 sequence (P07949 29-1114): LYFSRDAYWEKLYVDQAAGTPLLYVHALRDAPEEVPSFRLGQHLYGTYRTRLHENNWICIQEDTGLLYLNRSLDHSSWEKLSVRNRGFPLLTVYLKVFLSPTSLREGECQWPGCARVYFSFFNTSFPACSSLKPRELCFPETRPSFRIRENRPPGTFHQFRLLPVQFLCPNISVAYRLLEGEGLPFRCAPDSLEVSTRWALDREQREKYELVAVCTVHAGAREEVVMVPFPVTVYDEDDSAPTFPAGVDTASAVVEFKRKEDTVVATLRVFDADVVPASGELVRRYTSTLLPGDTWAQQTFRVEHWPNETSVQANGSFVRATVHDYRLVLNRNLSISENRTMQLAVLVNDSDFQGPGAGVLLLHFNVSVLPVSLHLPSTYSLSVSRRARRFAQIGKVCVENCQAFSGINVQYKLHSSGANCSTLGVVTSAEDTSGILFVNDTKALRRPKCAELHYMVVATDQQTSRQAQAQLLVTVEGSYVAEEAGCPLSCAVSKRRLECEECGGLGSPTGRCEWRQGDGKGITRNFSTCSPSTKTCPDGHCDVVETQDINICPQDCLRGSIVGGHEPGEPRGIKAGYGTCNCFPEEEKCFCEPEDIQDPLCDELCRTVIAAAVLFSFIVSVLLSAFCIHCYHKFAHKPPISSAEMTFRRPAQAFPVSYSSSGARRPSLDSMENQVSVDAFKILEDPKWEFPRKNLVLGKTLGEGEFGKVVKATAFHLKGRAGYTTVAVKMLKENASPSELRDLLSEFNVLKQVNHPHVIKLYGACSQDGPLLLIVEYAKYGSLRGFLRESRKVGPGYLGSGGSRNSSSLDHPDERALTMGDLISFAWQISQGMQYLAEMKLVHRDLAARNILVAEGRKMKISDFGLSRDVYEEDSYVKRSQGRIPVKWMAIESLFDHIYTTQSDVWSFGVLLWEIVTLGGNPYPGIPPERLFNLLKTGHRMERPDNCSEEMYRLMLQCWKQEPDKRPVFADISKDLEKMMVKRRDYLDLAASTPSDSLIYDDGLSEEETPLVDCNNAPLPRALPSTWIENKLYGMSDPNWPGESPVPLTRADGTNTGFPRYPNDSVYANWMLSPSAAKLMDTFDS

CN(C(=O)CN1CCOCC1)c1ccc2sc3c(-c4cccc5c(=O)cc(N6CC7CCC(C6)O7)oc45)cccc3c2c1 [NU5455]
inhibition at 1 µM: 5.2%
